Structures are written as SMILES. Bounds are passed on as bounds.

Usually IC50 stands for the point on the concentration scale where inhibition reaches its midpoint. The low end stands for higher potency, the high end for lower potency.

The nature of this experiment: Binding affinity towards histamine receptor by inhibiting specific binding of [3H]-mepyramine (3 nM) in vitro to membranes of rat brain without cerebellum. Format: cell membranes.

Consider `c1ccc(CCN2CCN3CC(c4ccccc4)c4ccccc4C3C2)cc1` (centres undefined), for which the IC50 was over 10000 nM.

Consider `CN(C)CC1NCC(c2ccccc2)c2ccccc21` (centres undefined), for which the IC50 was 2000 nM.

In turn, `CN1CCN2CC(c3ccc(O)cc3)c3ccccc3C2C1` (centres undefined) showed an IC50 of 190 nM. For `c1ccc(C2CN3CCNCC3c3ccccc32)cc1` (centres undefined), the IC50 is over 10000 nM.

In turn, `COc1ccc(C2CN3CCN(C)CC3c3ccccc32)cc1` (centres undefined) gave an IC50 of 680 nM.

With `CN1CCN2CC(c3ccc(Cl)cc3)c3ccccc3C2C1` (centres undefined), the IC50 came out at 380 nM.

The molecule `c1ccc(CN2CCN3CC(c4ccccc4)c4ccccc4C3C2)cc1` (centres undefined) gave a half-inhibitory concentration (IC50) of over 10000 nM. Under `CCCCCCN1CCN2CC(c3ccccc3)c3ccccc3C2C1` (centres undefined) stands over 10000 nM; under `CCN1CCN2CC(c3ccccc3)c3ccccc3C2C1` (centres undefined), 280 nM.

As for `CN1CCN2CC(c3ccc([N+](=O)[O-])cc3)c3ccccc3C2C1` (cis isomer), the IC50 came out at 520 nM.

Regarding `CCCN1CCN2CC(c3ccccc3)c3ccccc3C2C1` (cis isomer), the IC50 is over 10000 nM.

Take `CN1CCN2CC(c3ccc(N)cc3)c3ccccc3C2C1` (cis isomer): the IC50 was 860 nM. As to `CCCCN1CCN2CC(c3ccccc3)c3ccccc3C2C1` (cis isomer), the IC50 is over 10000 nM. With `CN(C)CC1c2ccccc2C(c2ccccc2)CN1C` (cis isomer) the figure was over 10000 nM.

In turn, `CN1CCN2CC(c3ccc([N+](=O)[O-])cc3)c3ccc([N+](=O)[O-])cc3C2C1` (cis isomer) had an IC50 of over 10000 nM. On to `CCNCC1NCC(c2ccccc2)c2ccccc21` (cis isomer), for which the IC50 was found to be 5000 nM. `CN1CCN2CC(c3ccccc3)c3ccccc3C2C1` (single isomer, unassigned; (-)) came in with an IC50 of 40 nM. Under `CNCC1NCC(c2ccccc2)c2ccccc21` (stereo in doubt; 4a) stands 3500 nM; under `CNCC1NCC(c2ccccc2)c2ccccc21` (stereo in doubt; 5), 170 nM. Under `CN1CCN2CC(c3ccccc3)c3ccccc3C2C1` (stereo in doubt; 7a) stands 60 nM; under `CN1CCN2CC(c3ccccc3)c3ccccc3C2C1` (stereo in doubt; 10), 2800 nM; under `CN1CCN2CC(c3ccccc3)c3ccccc3C2C1` (trans isomer), over 10000 nM.

For the molecule `CN(C)CCCN1c2ccccc2CCc2ccccc21` [IMIPRAMINE], the IC50 was 30 nM.

As for `CN1CCN2c3ccccc3Cc3ccccc3C2C1` (centres undefined) [MIANSERIN], the half-maximal inhibitory concentration (IC50) turned out to be 14 nM.

These data come from ChEMBL document CHEMBL1122716, “cis-1,3,4,6,7,11b-Hexahydro-2-methyl-7-phenyl-2H-pyrazino[2,1-a] isoquinoline: a new atypical antidepressant” (J Med Chem, 1984).
